Data reported in US20060270615A1, “Compositions suitable for the treatment of damage caused by ischemia/reper-fusion or oxidative stress” (N.V. NUTRICIA, priority 2000, published 2006).
Values joined by “and” are separate entries in the source; they are usually repeats but may differ in a detail not shown here. Equal entries are not always repeated.

Columns and labels:
[1] = target: T1, xanthine oxidase (grade I from buttermilk) (Bos taurus, UniProt P80457); assay: Xanthine oxidase inhibition (xanthine oxidase assay), uric acid production; assay type: biochemical; details: xanthine substrate, pH 7.8, absorbance at 295 nm; for IC50: read-out: IC-50 xanthine oxidase inhibition (converted)
T1 construct: XOD (xanthine oxidase) (grade I from buttermilk); from tissue; host or cells: buttermilk
Description: Xanthine Oxidase Inhibition (Xanthine Oxidase Assay)
The activity of xanthine oxidase is determined by means of the uric acid production.
This solution is maintained on ice during the entire experiment to prevent changes in the activity of the enzyme.
724 μl phophate buffer pH=7.8
10 μl DMSO or the substance to be tested dissolved in DMSO
The reaction is started by addition of 66 μl of the enzyme solution to the above described assay mixture. […] If the reaction is linear, the result is expressed as Δ absorbance/min. […] The maximum activity is the activity of the enzyme, when no substance is dissolved in DMSO.

[2] = Peroxyl radical scavenging (β-phycoerythrin fluorescence assay, ORACROO); assay type: biochemical; set-up: key to TE (Trolox equivalent) (based on mole weight): ratio of net curve area to Trolox's, molar basis; details: relative to Trolox, area under fluorescence curve
Description: In the β-phycoerythrin fluorescence based assay the reduction of β-phycoerythrin decomposition by radicals resulting from the thermal decomposition of V50 is measured. […]
Peroxyl Radical Scavenging (β-phycoerythrin fluorescence assay)
The principle underlying the present method is that B-phycoerythrin is decomposed by radicals that are the result of the thermolitic decomposition of V50 at 20° C. When a product scavenges these radicals, the decrease in fluorescence in time will occur less quickly. All measurements should be carried out at least in threefold.
AAPH (2,2′-azobis(2-aminopropane)dihydrochloride) (e.g. from Wako Chemicals)=V50; MW=271.19 g/mol; 16 mM in the assay
β-PE (e.g. from Sigma) MW=240,000 g /mol; 16.7 nM in the assay
Trolox (e.g. from Aldrich) MW =250.29 g/mol; in the assay test in the range of 1-10 μM.
Each tray should contain trolox as a reference and as a standard (2 μM or 0.5 mg/l). As a negative control a sample is taken containing only 10 μl ethanol, 50 μl 50 mM PBS, pH=7.4 and 50 μl 66.8 nM β-PE.
The reaction is started by adding 100 μl 32nM V-50. The time between pipetting and mixing of this last step in a well and the measurement of this well, should be constant. Further, the time between the last pipetting step in a well and the first measurement of the well should be less than 2 minutes.
V-50 should be stored in the dark at 4° C. until used. The reaction kinetics of the wells are monitored in a continuous monitoring process. The excitation wavelength is 540 nm, while the emission wavelength is 565 nm. The reaction is monitored until the signal of the sample differs no longer from the background signal (±10%). The area underneath the curve of the negative reference is subtracted from the area underneath the substance to be measured. This difference in area is then related to a difference in area in relation to a negative reference resulting from trolox.

T1 sequence (P80457 whole entry): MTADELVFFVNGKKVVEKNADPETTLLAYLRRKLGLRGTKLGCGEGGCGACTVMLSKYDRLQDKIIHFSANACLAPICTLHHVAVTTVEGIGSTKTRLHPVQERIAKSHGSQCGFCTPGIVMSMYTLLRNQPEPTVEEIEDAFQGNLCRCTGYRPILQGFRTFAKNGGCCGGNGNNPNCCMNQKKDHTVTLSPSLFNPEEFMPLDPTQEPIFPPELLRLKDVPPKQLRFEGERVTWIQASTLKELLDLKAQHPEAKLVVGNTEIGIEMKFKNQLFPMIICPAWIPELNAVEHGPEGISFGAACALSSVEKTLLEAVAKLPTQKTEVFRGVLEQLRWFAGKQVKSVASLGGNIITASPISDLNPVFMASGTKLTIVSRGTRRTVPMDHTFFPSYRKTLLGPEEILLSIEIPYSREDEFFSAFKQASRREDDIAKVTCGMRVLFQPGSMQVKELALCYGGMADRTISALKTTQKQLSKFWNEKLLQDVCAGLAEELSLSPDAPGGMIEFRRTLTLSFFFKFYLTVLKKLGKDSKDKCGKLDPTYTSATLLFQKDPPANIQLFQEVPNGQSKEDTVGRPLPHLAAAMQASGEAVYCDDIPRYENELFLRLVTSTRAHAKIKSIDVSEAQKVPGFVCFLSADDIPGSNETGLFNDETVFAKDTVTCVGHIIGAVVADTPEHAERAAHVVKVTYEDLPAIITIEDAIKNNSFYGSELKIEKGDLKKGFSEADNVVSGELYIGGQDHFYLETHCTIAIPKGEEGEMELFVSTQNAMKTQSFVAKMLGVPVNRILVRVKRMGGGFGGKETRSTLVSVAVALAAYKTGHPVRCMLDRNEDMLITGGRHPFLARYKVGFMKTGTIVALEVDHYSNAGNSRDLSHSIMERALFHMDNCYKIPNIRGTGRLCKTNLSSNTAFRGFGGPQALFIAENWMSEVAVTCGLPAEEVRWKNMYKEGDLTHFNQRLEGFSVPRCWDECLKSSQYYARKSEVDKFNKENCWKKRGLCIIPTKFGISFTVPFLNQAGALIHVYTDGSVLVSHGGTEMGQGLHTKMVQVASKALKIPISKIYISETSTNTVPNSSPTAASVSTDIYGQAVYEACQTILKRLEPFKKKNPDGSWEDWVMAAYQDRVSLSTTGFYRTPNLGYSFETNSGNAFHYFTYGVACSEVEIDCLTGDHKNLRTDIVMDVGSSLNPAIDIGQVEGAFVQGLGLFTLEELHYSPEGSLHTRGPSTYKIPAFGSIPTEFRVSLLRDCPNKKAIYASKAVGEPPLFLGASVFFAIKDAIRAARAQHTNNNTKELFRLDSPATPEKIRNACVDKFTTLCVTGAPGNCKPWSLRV

## O=c1cc(-c2ccc(O)cc2)oc2cc(O)cc(O)c12 [Apigenin]
[1]
  IC50: 999 nM and 1000 nM
[2]
  TE (Trolox equivalent) (based on mass): 1.56
  TE (Trolox equivalent) (based on mole weight): 1.69

## O=c1cc(-c2ccccc2)oc2cc(O)cc(O)c12 [Chrysin]
[1]
  IC50: 2540 nM and 2500 nM

## COc1cc(/C=C/C(=O)CC(=O)/C=C/c2ccc(O)c(OC)c2)ccc1O [Curcumin]
[1]
  IC-50 xanthine oxidase inhibition: not detectable

## Oc1cc(O)c2c(c1)O[C@H](c1ccc(O)c(O)c1)[C@H](O)C2 [Epicatechin]
[1]
  IC-50 xanthine oxidase inhibition: not detectable

## O=C(O[C@@H]1Cc2c(O)cc(O)cc2O[C@@H]1c1cc(O)c(O)c(O)c1)c1cc(O)c(O)c(O)c1 [Epigalo-catechin-galate (ECCG), Epigalo-catechin-galate]
[1]
  IC-50 xanthine oxidase inhibition: not detectable
[2]
  TE (Trolox equivalent) (based on mass): 0.54
  TE (Trolox equivalent) (based on mole weight): 0.99

## O=c1cc(-c2ccc(O)c(O)c2)oc2cc(O)cc(O)c12 [Luteolin]
[1]
  IC50: 751 nM and 750 nM
[2]
  TE (Trolox equivalent) (based on mass): 1.22
  TE (Trolox equivalent) (based on mole weight): 1.40

## O=c1c(O)c(-c2cc(O)c(O)c(O)c2)oc2cc(O)cc(O)c12 [Myricetin]
[1]
  IC50: 1510 nM and 1500 nM
[2]
  TE (Trolox equivalent) (based on mass): 0.89
  TE (Trolox equivalent) (based on mole weight): 1.13

## O=C1c2ccc(O)cc2O[C@H](c2ccc(O)c(O)c2)[C@H]1O [fustin]
[2]
  TE (Trolox equivalent) (based on mass): 1.07
  TE (Trolox equivalent) (based on mole weight): 1.24

## O=c1c(O)c(-c2ccc(O)c(O)c2)oc2cc(O)cc(O)c12 [quercetin]
[2]
  TE (Trolox equivalent) (based on mass): 1.32
  TE (Trolox equivalent) (based on mole weight): 1.78
